The structures appear in SMILES notation.

As a reminder, the IC50 is the concentration at which inhibition is half-maximal. Low readings indicate greater potency in that assay, high ones weaker potency in that assay.

The test system of test [1] is MDA-MB-435. Description: cells. The conditions noted are these: Homo sapiens.
Description: Inhibition of MDA-MB-435 breast cancer cell proliferation
The subject of test [2] is MDA-MB-231. The test is described as follows: cells. Conditions: Homo sapiens.
Description: Inhibition of estrogen receptor negative MDA-MB-231 breast cancer cell proliferation
The test system of test [3] is MCF7. The test is described as follows: cells. The conditions noted are these: Homo sapiens.
Description: Inhibition of estrogen receptor positive MCF-7 breast cancer cell proliferation
The test system of test [4] is NCI/ADR-RES. The test is described as follows: cells. Conditions: Homo sapiens.
Description: Inhibition of MCF-7/Adr breast cancer cell proliferation
For test [5], the target named is Estrogen receptor (Homo sapiens, UniProt Q92731+P03372). The conditions noted are these: mcf-7.
Description: Inhibition of [3H]E2 binding to estrogen receptor alpha in MCF-7 cell lysate

For the molecule `CC/C(=C(/c1ccc(O)cc1)c1ccc(OCCN(C)CCOCCOCCO/N=C/c2ccc(O)c(C(=O)NCNC3CC(O[C@H]4C[C@](O)(C(=O)CO)Cc5c(O)c6c(c(O)c54)C(=O)c4c(OC)cccc4C6=O)OC(C)C3O)c2)cc1)c1ccccc1` (some centres undefined), the IC50 was found to be 40 nM in test [1]; 30 nM in test [2]; 30 nM in test [3]; 60 nM in test [4]; 200 nM in test [5].

For `CCC(c1ccccc1)C(c1ccc(O)cc1)c1ccc(OCCN(C)CCO/N=C/c2ccc(O)c(C(N)=O)c2)cc1` (centres undefined), the IC50 in test [5] was determined as 300 nM.

Turning to `CC/C(=C(/c1ccc(O)cc1)c1ccc(OCN(C)C)cc1)c1ccccc1.COc1cccc2c1C(=O)c1c(O)c3c(c(O)c1C2=O)C[C@@](O)(C(=O)CO)C[C@@H]3O[C@H]1C[C@H](N)[C@H](O)[C@H](C)O1`, the concentration for half-maximal inhibition (IC50) in test [1] is 100 nM; in test [2], 100 nM; in test [3], 70 nM; in test [4] it was 2000 nM.

For `COc1cccc2c1C(=O)c1c(O)c3c(c(O)c1C2=O)C[C@@](O)(C(=O)CO)C[C@@H]3O[C@H]1C[C@H](N)[C@H](O)[C@H](C)O1` [DOXORUBICIN], the half-maximal inhibitory concentration (IC50) came to 150 nM in test [1], 300 nM in test [2] and 10000 nM in test [4].

The molecule `CCC(c1ccccc1)C(c1ccc(O)cc1)c1ccc(OCCN(C)CCOCCOCCO/N=C/c2ccc(O)c(C(N)=O)c2)cc1` (centres undefined) yielded an IC50 in test [5] of 150 nM.

In the case of `CC/C(=C(/c1ccc(O)cc1)c1ccc(OCCN(C)CCO/N=C/c2ccc(O)c(C(=O)NCNC3CC(O[C@H]4C[C@](O)(C(=O)CO)Cc5c(O)c6c(c(O)c54)C(=O)c4c(OC)cccc4C6=O)OC(C)C3O)c2)cc1)c1ccccc1` (some centres undefined), the half-maximal inhibitory concentration (IC50) in test [1] is 60 nM; in test [2], 40 nM; in test [3], 80 nM; in test [4], 250 nM; in test [5], 300 nM.

`CC/C(=C(\c1ccccc1)c1ccc(OCCN(C)C)cc1)c1ccccc1` [TAMOXIFEN]: the half-maximal inhibitory concentration (IC50) in test [1] turned out to be 50 nM; in test [2] it was 80 nM; in test [3], 70 nM; in test [4] it was 2000 nM.

For the molecule `CC/C(=C(/c1ccc(O)cc1)c1ccc(OCN(C)C)cc1)c1ccccc1`, the 50% inhibitory concentration (IC50) in test [1] worked out at 20000 nM; in test [2], 30000 nM; in test [3] it was 300 nM; in test [4] it was 40000 nM; in test [5], 5 nM.

In the case of `CCC(c1ccccc1)C(c1ccc(O)cc1)c1ccc(OCCN(C)CCOCCO/N=C/c2ccc(O)c(C(N)=O)c2)cc1` (centres undefined), the concentration for half-maximal inhibition (IC50) in test [5] was found to be 150 nM.

As to `CC/C(=C(/c1ccc(O)cc1)c1ccc(OCCN(C)CCOCCO/N=C/c2ccc(O)c(C(=O)NCNC3CC(O[C@H]4C[C@](O)(C(=O)CO)Cc5c(O)c6c(c(O)c54)C(=O)c4c(OC)cccc4C6=O)OC(C)C3O)c2)cc1)c1ccccc1` (some centres undefined), the IC50 in test [1] turned out to be 40 nM; in test [2], 30 nM; in test [3] it was 20 nM; in test [4], 70 nM; in test [5], 300 nM.

The record behind these values is ChEMBL document CHEMBL1148484, “Design, synthesis, and biological evaluation of doxorubicin-formaldehyde conjugates targeted to breast cancer cells” (J Med Chem, 2004).
